The conditions of data set [1]: cited from earlier work; for duration of action on feeding: single injection.
The test system of a further data set is adipose tissue. Kind of data set: in vitro human adipose tissue angiogenesis assay (fat fragments in fibrin clot). The class given is cell-based. On the procedure: Tissue Preparation: Discarded fat from human surgery was cut into fragments approximately 1 mm thick and 2 mm in diameter. These fat fragments were placed in 96-well plates loaded with human thrombin solution (0.05 IU in 40 μL double distilled water/well). The fat fragments were placed in the prepared 96-well plates and covered with 100 μl clotting media. The clotting media consisted of fibrinogen (3 mg/ml) (Sigma Chemical Co., St. Louis, Mo.) and ε-amino caproic acid (0.5%) (Sigma Chemical Co., St. Louis, Mo.) in human placental vein angiogenesis model (HPVAM) media. […] The mixture was allowed to clot by incubation in 6% CO2, 94% air at 37° C. in a humidified incubator. After the media had gelled overnight, the fat-containing clot was supplemented with 1 mL HPVAM media containing 20% fetal bovine serum (GibcoBRL, Gaithersburg, Md.). The total volume of each well was 2 mL.
Angiogenic Evaluation: All wells were evaluated for angiogenic sprouting by examination at 40× and 200× magnification by an unbiased observer using an inverted microscope. Angiogenesis was defined by two criteria. First, the number of wells (as a percentage of the total plated) that developed new vessel growth was termed initiation. This was defined by the presence of at least three angiogenic sprouts of approximately 0.5 mm in length growing from the periphery of the fat tissue. The degree of angiogenic response was assessed using a semi-quantitative visual rating scale as described in E. A. Woltering et al., “Development of a novel in vitro human tissue-based angiogenesis assay to evaluate the effect of antiangiogenic drugs,” Ann. Surg., vol. […] The tissue was visually divided into four quadrants. Each quadrant was given a numeric score from 0-4 based on the length and density of the new vessel growth, and on the percentage of the quadrant's circumference involved with the angiogenic response. Numeric results from the four quadrants were summed and expressed as an angiogenic index (AI, 1-16). This rating scale has been validated using multiple independent observers as described in C. Hornick et al., “Inhibition of angiogenic initiation and disruption of newly established human vascular networks by juice of Morinda citrifola (Noni),” Angiogenesis, vol.

Another data set concerns galanin receptors. The conditions noted are these: cited from earlier work.
The conditions of data set [2]: humans, intravenous injection; cited from earlier work.
Another data set deals with GT1-7 cells. Kind of data set: microarray gene analysis, GT1-7 cells. The class given is cell-based. The conditions noted are these: GT1-7 cells (counted together with HepG2); 60 minutes; 0.01, 0.1 and 1.0 uM; regulated by at least 1.7×. On the procedure:
(§1) HepG2 cells (a human liver carcinoma cell line) and GT1-7 cells (a neuronal cell line) were cultured by standard procedures and incubated with varying concentrations of enterostatin for 60 minutes. At the completion of the incubation period, cells were lysed, recovered from the plates, and extracted for RNA using TRI REAGENT® (Molecular Research Center, Inc, Cincinnati, Ohio). The RNA was then purified using the RNeasy® Mini Kit (Qiagen, Valencia, Calif.). RNA quality was visually assessed using agarose gel electrophoresis and quantified by UV spectrophotometric analysis (A260 and A280 nm). All RNA had A260/A280 ratios greater than 1.75 and less than 2.10. RNA integrity was checked using an RNA 6000 nano lab chip kit (Agilent Technologies, Foster City, Calif.). […]
(§2) Slides were scanned using a GSI Lumonics ScanArray 5000 laser scanner (Perkin Elmer Life Sciences, Inc., Boston, Mass.) at a relatively low and a relatively high laser intensity and expression data was analyzed using the QuantArray V3.0 software package (Perkin Elmer Life Sciences, Inc.). […]

A further data set addresses kappa-opioid receptors (Homo sapiens, UniProt P41145). To be noted: cited from earlier work.
For data set [3] the following is noted: low affinity binding, brain membrane preparation; cited from earlier work.
Data set [4] concerns the target T1, cholecystokinin A receptors (Homo sapiens, UniProt P32238).
T1 sequence (P32238 1-428): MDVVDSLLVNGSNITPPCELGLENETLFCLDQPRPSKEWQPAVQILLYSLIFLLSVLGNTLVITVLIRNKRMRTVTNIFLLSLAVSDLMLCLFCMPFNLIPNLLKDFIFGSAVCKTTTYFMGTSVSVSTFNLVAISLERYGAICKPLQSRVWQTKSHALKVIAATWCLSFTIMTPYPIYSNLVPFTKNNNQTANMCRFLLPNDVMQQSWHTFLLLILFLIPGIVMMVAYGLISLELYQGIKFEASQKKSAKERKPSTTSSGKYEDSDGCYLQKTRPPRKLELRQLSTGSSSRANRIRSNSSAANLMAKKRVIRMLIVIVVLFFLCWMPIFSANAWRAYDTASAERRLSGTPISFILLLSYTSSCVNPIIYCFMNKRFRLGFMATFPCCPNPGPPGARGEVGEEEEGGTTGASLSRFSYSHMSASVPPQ
To be noted: cited from earlier work.

Data set [5] deals with beta subunit of ATP synthase (Homo sapiens, UniProt P06576). To be noted: cited from earlier work.
Data set [6] deals with T2, Neuropeptide Y1 receptors (Homo sapiens, UniProt P25929).
T2 sequence (P25929 1-384): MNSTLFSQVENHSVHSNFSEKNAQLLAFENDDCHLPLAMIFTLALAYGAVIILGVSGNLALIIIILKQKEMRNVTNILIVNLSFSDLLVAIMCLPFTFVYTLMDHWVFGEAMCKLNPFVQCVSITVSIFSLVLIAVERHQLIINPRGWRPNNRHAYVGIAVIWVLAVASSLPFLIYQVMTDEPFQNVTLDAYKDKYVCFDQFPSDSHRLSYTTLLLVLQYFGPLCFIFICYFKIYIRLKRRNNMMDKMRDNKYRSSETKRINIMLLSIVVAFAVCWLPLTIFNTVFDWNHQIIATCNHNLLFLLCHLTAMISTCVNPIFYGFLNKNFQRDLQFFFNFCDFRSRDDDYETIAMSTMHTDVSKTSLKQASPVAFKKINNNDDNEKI
To be noted: cited from earlier work.

A further data set deals with umbilical veins. Kind of data set: human umbilical vein angiogenesis model. The data set is classed as cell-based. An excerpt:
In addition, another angiogenesis model was tried, the human umbilical vein model as described by Woltering et al. (61). This model uses discarded umbilical veins to assay the effect of various compounds on angiogenesis.

The conditions of data set [7]: occurring mainly into lymphatic system; cited from earlier work.
For another data set, the system named is HepG2 cells. Kind of data set: microarray gene analysis, HepG2 cells. The class given is cell-based, human. The conditions noted are these: HepG2 cells (counted together with GT1-7); 60 minutes; 0.01, 0.1 and 1.0 uM; regulated by at least 1.7×. As to the method:
as §1, §2

The subject of data set [8] is SK-N-MC neuroepithelioma cells. To be noted: low affinity binding; cited from earlier work.
The next data set has as its system islet cells. To be noted: cited from earlier work.
[9] abbreviates: rats adapted to three-choice macronutrient diet.

Entries after “also recorded” stand apart in the source; their conditions may differ. Where two headings read alike, the source gives them in different places.

Chain of beta subunit of ATP synthase (P06576 48-529): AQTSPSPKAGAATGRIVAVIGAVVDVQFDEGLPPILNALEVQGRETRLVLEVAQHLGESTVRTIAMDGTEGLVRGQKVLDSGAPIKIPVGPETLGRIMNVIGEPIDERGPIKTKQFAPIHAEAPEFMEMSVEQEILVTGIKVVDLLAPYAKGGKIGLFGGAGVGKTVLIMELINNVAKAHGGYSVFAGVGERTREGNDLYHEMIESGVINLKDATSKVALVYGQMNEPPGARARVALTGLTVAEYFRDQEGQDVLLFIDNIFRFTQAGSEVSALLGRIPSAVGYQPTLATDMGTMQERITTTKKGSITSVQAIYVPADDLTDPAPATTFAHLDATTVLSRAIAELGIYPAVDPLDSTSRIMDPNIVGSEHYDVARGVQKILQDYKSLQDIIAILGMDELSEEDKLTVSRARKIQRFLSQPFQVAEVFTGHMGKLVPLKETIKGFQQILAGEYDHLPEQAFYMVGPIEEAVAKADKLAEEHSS
Chain of kappa-opioid receptors (P41145 whole entry): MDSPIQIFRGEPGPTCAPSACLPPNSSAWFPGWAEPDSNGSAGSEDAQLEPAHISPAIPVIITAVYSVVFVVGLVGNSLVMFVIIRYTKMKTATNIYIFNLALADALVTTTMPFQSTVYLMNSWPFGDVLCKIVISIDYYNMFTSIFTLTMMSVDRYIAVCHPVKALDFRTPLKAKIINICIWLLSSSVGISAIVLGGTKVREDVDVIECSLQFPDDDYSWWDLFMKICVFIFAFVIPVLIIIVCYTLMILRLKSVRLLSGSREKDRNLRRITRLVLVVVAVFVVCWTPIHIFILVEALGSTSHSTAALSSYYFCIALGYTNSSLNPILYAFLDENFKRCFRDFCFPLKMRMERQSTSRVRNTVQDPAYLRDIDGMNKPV

Regarding APGP-ornithine [reference compound], the “food intake in rats” value in data set [1] (rat, in vivo) is on record as “shown to affect food intake in rats”. Moreover, the “inhibitory effect on the angiogenic index (FIG. 4 legend)” value with adipose tissue is recorded as “lack of an inhibitory effect”. In addition, the “inhibition of angiogenesis (FIG. 4)” value in the data set with adipose tissue (concentrations from 10^−6 to 10^−9 M) is listed as “none of these concentrations of the metabolite inhibited angiogenesis”.

As a reminder, the Kd is the free concentration of one partner at which half of the binding sites on the other are occupied at equilibrium, for simple one-to-one binding. For the substance “enterostatin (VPDPR; printed: Val-Pro-Asp-Pro-Arg) [aminoterminal pentapeptide of procolipase released when procolipase is converted into colipase]”, the “binding to galanin receptors” value with galanin receptors is reported as “not to bind”. In data set [2], the food intake result is recorded as “not found to reduce food intake”. The “subjective feeling of hunger” value in data set [2] is “reduce the subjective feeling of hunger”. The “number of genes related to the angiogenesis pathway upregulated or downregulated” value in the data set with GT1-7 cells and in the data set with HepG2 cells was 22 genes throughout. The “binding to kappa-opioid receptors” value with kappa-opioid receptors is “not to bind”. The results for the Kd in data set [3] and in data set [8] were 230 nM and 40 nM, respectively. In addition, in data set [4], the “binding to cholecystokinin A receptors” value is given as “not to bind”. In addition, in [5], the “binding to purified beta subunit of ATP synthase” value was “bind to this purified protein; also recorded: binds to the beta subunit of ATP synthase”. Moreover, the “binding to Neuropeptide Y1 receptors” value in data set [6] is given as “not to bind”. Further, the inhibition of angiogenesis result with umbilical veins was “effective in inhibiting angiogenesis”. In data set [7], the “absorption across the intestine” value was “limited and slow”. Moreover, the “daily intake of dietary fat” value in data set [1] (chronic icv administration from mini-osmotic pumps, single-choice HF or two-choice HF/LF diet) is listed as “attenuated the daily intake of dietary fat”. Besides, in data set [1] (setting [9]), the “carbohydrate or protein intake” value is “no effect on either carbohydrate or protein intake”. For the same substance, the “intake of fat macronutrient” value in data set [1] (setting [9]) is listed as “reduced intake of the fat macronutrient”. For the same substance, the “duration of action on feeding” value in data set [1] (rats adapted to a six-hour feeding schedule) was “lasting up to six hours”; in data set [1] (rats adapted to ad-libitum feeding), “up to 24 hours”. Moreover, the “intake of HF vs LF diet” value in data set [1] (two-choice high-fat and low-fat diet paradigm) is “reduced only intake of the HF diet”. Further, in the data set with adipose tissue, the “concentration least inhibitory of angiogenesis as measured by the angiogenic index (FIG. 3)” value is on record as 10^−10 M. The “new blood vessels (photomicrograph, FIG. 1B vs control FIG. 1A)” value in the data set with adipose tissue (10^−9 M enterostatin) is “fewer new blood vessels than the control tissue”. Further, the angiogenic response result with adipose tissue (concentrations from about 10^−6 to about 10^−9 M) is recorded as “effectively blocked the angiogenic response”. The “concentration giving the greatest inhibition of angiogenic index (FIG. 2)” value with adipose tissue (day 15, U-shaped dose response curve) is 10^−9 M. In addition, in the data set on adipose tissue (range of 10^−8 to 10^−6 M), the “effect on the angiogenic index (FIG. 2)” value is “dose dependent inhibition”. In the data set on islet cells (10^−9 to 10^−5 M, 16.7 mM glucose, dose-dependent), the “insulin secretion from islets” value is on record as “inhibited insulin secretion from islets”. The “insulin secretion from isolated pancreatic islets” value with islet cells (doses of 10^−10 to 10^−6M) is given as “inhibit insulin secretion”.

For the substance β-casomorphin1-7 [reference compound], the “binding to purified beta subunit of ATP synthase” value in [5] was “bind to this purified protein”. Besides, the “inhibitory effect on the angiogenic index (FIG. 4 legend)” value with adipose tissue was “lack of an inhibitory effect”. For the same substance, the “effect on angiogenesis (FIG. 4)” value in the data set with adipose tissue (concentrations of 10^−6 and 10^−7 M) is listed as “no effect on angiogenesis”.

The values above are taken from patent publication US7943576B2, “Methods of using enterostatin as inhibitor of angiogenesis” (priority 2005, dated 2011).
